Test results as given in patent US5736558A, “4-(6-fluoro-1,2-benzisoxazolyl)-1 piperidinyl-propoxy-chromen-4-one-one-derivatives, their preparation and their use in the treatment of psychosis, schizophrenia and anxiety” (Ferrer Internacional, S.A., priority 1995, dated 1998).
Like-named read-outs stand apart in the source and are kept apart here.

How the values were obtained:
5HT1a receptors = target: T1, 5HT1a receptors (Rattus norvegicus, UniProt P19327); assay: Specific binding to 5HT1a receptors ([3H]5-OH-DPAT, rat cortex membrane)
T1 construct: membrane corresponding to 1 mg of rat cortex; from tissue; host or cells: rat cortex membrane
T1 sequence (P19327 1-422): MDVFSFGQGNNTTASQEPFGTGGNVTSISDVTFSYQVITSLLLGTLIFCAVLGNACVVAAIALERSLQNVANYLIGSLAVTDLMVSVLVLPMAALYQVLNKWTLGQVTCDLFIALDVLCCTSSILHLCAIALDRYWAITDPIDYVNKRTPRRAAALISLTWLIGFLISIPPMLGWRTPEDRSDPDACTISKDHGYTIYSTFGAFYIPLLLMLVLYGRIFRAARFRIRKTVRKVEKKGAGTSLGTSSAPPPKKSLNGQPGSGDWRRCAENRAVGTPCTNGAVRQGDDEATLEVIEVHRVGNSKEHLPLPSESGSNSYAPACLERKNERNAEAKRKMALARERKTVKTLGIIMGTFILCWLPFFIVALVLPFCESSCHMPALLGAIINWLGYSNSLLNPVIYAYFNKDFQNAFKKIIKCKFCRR
Experimental: (§1) Specific binding to D2, 5HT2 and, 5HT1a receptors was tested as follows:
5HT1a receptors: A 1 nM solution of radioactive […], which acts as a specific ligand, was incubated with the membrane corresponding to 1 mg of rat cortex for 20 min at 35° C. buffered at pH 7.4 with Tris.HCl.
Non-specific binding was then determined by addition of a 20 micromolar concentration of unlabelled buspirone. IC50 (inhibitory concentration 50%) was calculated from the inhibition rate of the specific binding obtained by addition of eleven different concentrations of the compounds to be tested. After the incubation was completed, the sample was filtered through a glass fiber filter and then washed three times with Tris.HCl buffer. The amount of receptor-bound radioactivity was retained on the membrane and determined by liquid scintillation counting.
(§2) The biochemical results expressed as IC50 in molar concentrations are presented in Table 1 comparatively to the compound of Patent ES 9400581. A higher affinity of the present compounds to the three receptors is observed.

in vivo = details: rat, po
5HT2 receptors = target: T2, 5HT2 receptors (Rattus norvegicus, UniProt P14842); assay: Specific binding to 5HT2 receptors ([3H]ketanserin, rat cortex membrane); details: 0.5 nM [3H]ketanserin, 30 min, 35° C., pH 7.4
T2 construct: membrane corresponding to 1 mg of rat cortex; from tissue; host or cells: rat cortex membrane
T2 sequence (P14842 whole entry): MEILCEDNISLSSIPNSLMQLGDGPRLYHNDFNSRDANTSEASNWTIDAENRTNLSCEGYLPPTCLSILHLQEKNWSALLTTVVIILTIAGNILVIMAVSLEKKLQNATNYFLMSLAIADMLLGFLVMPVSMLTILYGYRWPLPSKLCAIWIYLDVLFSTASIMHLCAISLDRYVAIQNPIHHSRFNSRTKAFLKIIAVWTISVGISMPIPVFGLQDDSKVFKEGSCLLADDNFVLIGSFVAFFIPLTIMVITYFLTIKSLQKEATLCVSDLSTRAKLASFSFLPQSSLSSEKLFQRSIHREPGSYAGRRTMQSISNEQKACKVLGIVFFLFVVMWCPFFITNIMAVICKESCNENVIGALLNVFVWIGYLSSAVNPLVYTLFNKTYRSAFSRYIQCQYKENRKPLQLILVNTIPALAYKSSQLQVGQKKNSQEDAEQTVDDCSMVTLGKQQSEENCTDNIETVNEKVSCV
Experimental: as §1
The amount of receptor-bound radioactivity was retained on the membrane and determined by liquid scintillation counting.
as §2

[1] = system: apomorphine-induced climbing behaviour; assay: Inhibition test of apomorphine-induced climbing behaviour; format: in vivo, male Swiss mice; details: Mus musculus, 1 h, read-out: ID50 Climbing
Experimental: The compounds were compared in Animal Pharmacology by the inhibition test of apomorphine-induced climbing behaviour
For the practical performance of this experiment, male Swiss mice weighing 22-24 g were used. One week prior to experiment, animals were kept in our facilities at a temperature of 20°-22° C. and 12/12 h light-dark cycle, and had free access to food and water. Two hours prior to experiment, the animals were placed in individual cages without access to food.
Animals were administered orally with test drug or 0.25% agar at time 0. After 60 minutes, apomorphine was subcutaneously injected at a dose of 1 mg/kg, and after further 70 minutes the animal's behaviour was assessed. Two additional assessments were performed at 10-min intervals.
For assessment, each animal was placed on the bottom of a small upright box (11×7.5×4.5 cm). The walls of the box were made of translucent methacrylate except one of the lateral surfaces (7.5 cm wide) which was a 3-mm wire mesh. The position of the animal was scored for 2 minutes according to the following criteria: 0=four paws on the floor; 1=three paws on the floor; 2=two paws on the floor; 3=one paw on the floor; and 4=four paws holding the wire mesh. If an animal keeps several positions within the 2-min observation, the seconds elapsed in each position will be recorded. Finally, mean scoring was calculated.

D2 receptors = target: T3, D2 receptors (Rattus norvegicus, UniProt P61169); assay: Specific binding to D2 receptors ([3H]spiperone, rat striatum membrane)
T3 construct: membrane corresponding to 20 mg of rat striatum; from tissue; host or cells: rat striatum membrane
T3 sequence (P61169 whole entry): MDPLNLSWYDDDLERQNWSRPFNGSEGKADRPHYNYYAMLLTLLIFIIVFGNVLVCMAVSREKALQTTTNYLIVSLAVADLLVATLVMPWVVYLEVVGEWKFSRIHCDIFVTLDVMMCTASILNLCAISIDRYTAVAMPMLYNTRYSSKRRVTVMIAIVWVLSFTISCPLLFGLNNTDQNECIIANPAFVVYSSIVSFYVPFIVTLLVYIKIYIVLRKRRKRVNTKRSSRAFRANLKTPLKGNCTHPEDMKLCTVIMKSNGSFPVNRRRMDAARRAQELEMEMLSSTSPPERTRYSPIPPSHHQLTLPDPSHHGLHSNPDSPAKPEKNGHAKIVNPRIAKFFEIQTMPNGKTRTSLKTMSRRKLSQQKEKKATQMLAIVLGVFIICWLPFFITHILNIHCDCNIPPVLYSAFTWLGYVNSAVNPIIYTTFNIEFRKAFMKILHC
Experimental: D2 receptors: A 2-nM solution of radioactive spiperone ([^3 H]spiperone), which acts as a specific ligand, was incubated with the membrane corresponding to 20 mg of rat striatum for 20 min at 35° C. buffered at pH 7.4 with Tris.HCl. The non-specific binding was then determined by addition of a micromolar concentration of unlabelled spiperone. […] After the incubation was completed, the sample was filtered through a glass fiber filter and then washed three times with Tris.HCl buffer. The amount of receptor-bound radioactivity was retained on the membrane and determined by liquid scintillation counting.

[2] = 1 nM [3H]5-OH-DPAT, rat cortex, 20 min, 35° C., pH 7.4, read-out: IC50 5HT1a
[3] = oral, mice, apomorphine 1 mg/kg s.c. after 60 min

Row | SMILES | IC50 (5HT1a receptors; [2]) [nM] | ED50 (in vivo) [mg/kg] | selectivity ratio (in vivo) | IC50 (5HT2 receptors) [nM] | ED50 [1, 3] [mg/kg] | IC50 (D2 receptors; 2 nM [3H]spiperone, rat striatum, 20 min, 35° C., pH 7.4, read-out: IC50 D2) [nM] | IC50 (D2 receptors) [nM] | IC50 (5HT1a receptors) [nM] | ED50 ([1]; po) [mg/kg]
1 | Cc1coc2cc(OCCCN3CCC(c4noc5cc(F)ccc45)CC3)ccc2c1=O [Ex. 2, 7-[3-[4-(6-fluoro-1,2-benzisoxazole-3-yl)piperidin-1-yl]propoxy]-3-methyl-chromen-4-one] | 249 | 2.9 | 7.25 | 11.3 | 0.4 | – | – | – | –
2 | O=c1ccoc2cc(OCCCN3CCC(c4noc5cc(F)ccc45)CC3)ccc12 [Ex. 1, 7-[3-[4-(6-fluoro-1,2-benzisoxazole-3-yl)piperidin-1-yl]propoxy]chromen-4-one] | 383 | 11.2 | 4.17 | 11.2 | 2.7 | 30 | – | – | –
3 | O=c1c(CO)coc2cc(OCCCN3CCC(c4noc5cc(F)ccc45)CC3)ccc12 [Ex. 3, 7-[3-[4-(6-fluoro-1,2-benzisoxazole-3-yl)piperidin-1-yl]propoxy]-3-(hydroxymethyl)-chromen-4-one] | – | 3.8 | 15.2 | 4.71 | – | – | 11.6 | 152 | 0.25
